ChEMBL document CHEMBL1828590 (J Med Chem, 2011)

What was measured:
Mus musculus [1] = experiment: Toxicity in po dosed athymic nu/nu Harlan mouse with xenografted human HCT116 cells assessed as treatment-related mortality at 200 mg/kg,; assay type: organism-based, HCT-116; design: dose 200 mg/kg, route oral; conditions: in vivo
HCT-116 = experiment: Antitumor activity against human HCT116 cells xenografted in nude BALB/c mouse assessed as tumor growth inhibition at 100 mg/kg, po qd for 21 days measured on day 18; assay type: functional; conditions: read-out: TGI
[2] = Time required for attaining concentration above IC50 of HDAC1 in tumor of nude BALB/c mouse xenografted with HCT116 cells at 50 mg/kg, po administered as single dose; assay type: ADME, organism-based, Neoplasm, HCT-116; design: dose 50 mg/kg, route oral; conditions: in vivo
[3] = Time required for attaining concentration above IC50 of HDAC1 in tumor of nude BALB/c mouse xenografted with HCT116 cells at 100 mg/kg, po administered as single dose; assay type: ADME, organism-based, Neoplasm, HCT-116; design: dose 100 mg/kg, route oral; conditions: in vivo
[4] = Time required for attaining concentration above IC50 of HCT116 in tumor of nude BALB/c mouse xenografted with HCT116 cells at 50 mg/kg, po administered as single dose; assay type: ADME, organism-based, Neoplasm, HCT-116; design: dose 50 mg/kg, route oral; conditions: in vivo
[5] = Plasma protein binding in human at 1000 ng/mL; assay type: ADME, cell-free; conditions: read-out: PPB (converted)
[6] = Plasma protein binding in rat at 1000 ng/mL; assay type: ADME, cell-free; conditions: read-out: PPB (converted)
[7] = Plasma protein binding in mouse at 1000 ng/mL; assay type: ADME, cell-free; conditions: read-out: PPB (converted)
[8] = biological target: Voltage-gated inwardly rectifying potassium channel KCNH2 (Homo sapiens, UniProt Q12809); experiment: Displacement of [3H]-dofetilide from human ERG receptor at 10 uM
Sequence of Voltage-gated inwardly rectifying potassium channel KCNH2 (Q12809 whole entry): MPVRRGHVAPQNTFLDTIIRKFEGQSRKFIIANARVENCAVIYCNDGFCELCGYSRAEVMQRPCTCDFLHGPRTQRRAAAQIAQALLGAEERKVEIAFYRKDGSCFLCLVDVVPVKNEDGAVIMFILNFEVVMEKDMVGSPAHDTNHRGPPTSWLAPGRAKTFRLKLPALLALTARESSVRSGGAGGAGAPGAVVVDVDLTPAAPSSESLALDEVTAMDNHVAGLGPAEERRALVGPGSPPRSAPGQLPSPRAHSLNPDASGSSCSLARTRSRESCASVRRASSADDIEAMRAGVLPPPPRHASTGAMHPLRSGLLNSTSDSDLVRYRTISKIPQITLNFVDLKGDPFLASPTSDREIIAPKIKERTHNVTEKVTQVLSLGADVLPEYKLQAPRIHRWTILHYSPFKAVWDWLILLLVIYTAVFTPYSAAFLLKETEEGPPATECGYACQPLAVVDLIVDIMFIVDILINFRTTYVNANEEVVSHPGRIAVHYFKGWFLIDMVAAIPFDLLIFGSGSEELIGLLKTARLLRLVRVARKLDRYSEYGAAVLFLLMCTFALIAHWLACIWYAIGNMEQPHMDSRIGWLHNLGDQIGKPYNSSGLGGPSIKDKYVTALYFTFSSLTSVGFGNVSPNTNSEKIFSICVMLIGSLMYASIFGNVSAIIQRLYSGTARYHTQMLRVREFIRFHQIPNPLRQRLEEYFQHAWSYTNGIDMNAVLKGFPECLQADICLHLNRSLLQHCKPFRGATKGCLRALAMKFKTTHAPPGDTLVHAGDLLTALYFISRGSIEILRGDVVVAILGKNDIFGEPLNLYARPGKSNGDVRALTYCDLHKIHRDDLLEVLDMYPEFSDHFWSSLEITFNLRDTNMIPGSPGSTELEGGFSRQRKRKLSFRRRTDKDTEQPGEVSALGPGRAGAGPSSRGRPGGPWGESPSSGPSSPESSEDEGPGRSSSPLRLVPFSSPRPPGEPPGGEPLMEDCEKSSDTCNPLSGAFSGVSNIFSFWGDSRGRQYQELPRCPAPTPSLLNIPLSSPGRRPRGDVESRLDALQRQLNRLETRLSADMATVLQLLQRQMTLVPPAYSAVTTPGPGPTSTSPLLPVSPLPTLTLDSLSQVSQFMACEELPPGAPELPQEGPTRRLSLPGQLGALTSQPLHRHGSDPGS

[9] = Solubility of the compound in 1% methylcellulose/0.1% Tween 80; assay type: physicochemical
[10] = Half life in rat liver microsomes; assay type: ADME, Microsome
[11] = 1-Octanol-sodium phosphate buffer distribution coefficient, log D of the compound at pH 7.4; assay type: physicochemical; conditions: 1-octanol/sodium phosphate buffer, read-out: logD
[12] = Apparent oral clearance in nude BALB/c mouse at 10 mg/kg, iv; assay type: ADME, organism-based; design: dose 10 mg/kg; conditions: in vivo
[13] = AUC (0 to infinity) in nude BALB/c mouse at 10 mg/kg, iv; assay type: ADME, organism-based; design: time infinity, dose 10 mg/kg, route intravenous; conditions: plasma
[14] = Volume of distribution at steady state in Wistar rat at 2 mg/kg, iv; assay type: ADME, organism-based; design: dose 2 mg/kg, route intravenous; conditions: in vivo, read-out: Vdss
[15] = Cmax in Wistar rat at 10 mg/kg, po; assay type: ADME, organism-based; design: dose 10 mg/kg, route oral; conditions: in vivo
[16] = Tmax in Wistar rat at 10 mg/kg, po; assay type: ADME, organism-based; design: dose 10 mg/kg, route oral; conditions: in vivo
[17] = Terminal half life in Wistar rat at 10 mg/kg, po; assay type: ADME, organism-based; design: dose 10 mg/kg, route oral; conditions: in vivo, read-out: beta t1/2 (converted)
[18] = AUC (0 to infinity) in Wistar rat at 10 mg/kg, po; assay type: ADME, organism-based; design: time infinity, dose 10 mg/kg, route oral; conditions: plasma
[19] = Volume of distribution at steady state in Beagle dog at 2 mg/kg, iv; assay type: ADME, organism-based, Canis lupus familiaris; design: dose 2 mg/kg, route intravenous; conditions: in vivo, read-out: Vdss
[20] = AUC (0 to infinity) in Beagle dog at 2 mg/kg, iv; assay type: ADME, organism-based, Canis lupus familiaris; design: time infinity, dose 2 mg/kg, route intravenous; conditions: plasma
A2780 = experiment: Antitumor activity against human A2780 cells xenografted in nude BALB/c mouse assessed as tumor growth inhibition at 100 mg/kg, po qd for 21 days measured on day 9; assay type: functional; conditions: read-out: TGI
Mus musculus [21] = experiment: Toxicity in nude BALB/c mouse xenografted with human A2780 cells assessed as mortality at 50 mg/kg, po QD for 21 days measured on day 9; assay type: organism-based; design: dose 50 mg/kg, route oral; conditions: in vivo, 504 h
Mus musculus [22] = experiment: Toxicity in nude BALB/c mouse xenografted with human Ramos cells assessed as maximum body weight loss at 50 mg/kg, po QD for 21 days measured on day 12; assay type: organism-based; design: dose 50 mg/kg, route oral; conditions: in vivo, 504 h
MV4-11 = experiment: Antitumor activity against human MV4-11 cells xenografted in nude BALB/c mouse assessed as tumor growth inhibition at 25 mg/kg, po qd for 21 days measured on day 21; assay type: functional; conditions: MV4-11, 504 h, read-out: TGI
Mus musculus [23] = experiment: Toxicity in nude BALB/c mouse xenografted with human MV4-11 cells assessed as maximum body weight loss at 25 mg/kg, po QD for 21 days measured on day 12; assay type: organism-based; design: dose 25 mg/kg, route oral; conditions: in vivo, 504 h
Mus musculus [24] = experiment: Toxicity in nude BALB/c mouse xenografted with human MV4-11 cells assessed as mortality at 50 mg/kg, po QD for 21 days measured on day 21; assay type: organism-based; design: dose 50 mg/kg, route oral; conditions: in vivo, 504 h
Mus musculus [25] = experiment: Toxicity in nude BALB/c mouse xenografted with human MV4-11 cells assessed as mortality at 25 mg/kg, po QD for 21 days measured on day 21; assay type: organism-based; design: dose 25 mg/kg, route oral; conditions: in vivo, 504 h

CCCCCCc1nc2cc(/C=C/C(=O)NO)ccc2n1CCN(C)C
Activity (Mus musculus [1]): Toxic

CCCCc1nc2cc(/C=C/C(=O)NO)ccc2n1CCN(CC)CC.Cl.Cl
inhibition in vivo at 100 mg/kg (HCT-116): 98%
Time [2]: 10 h
Time [3]: 16 h
Time [4]: 5.1 h
fraction unbound at 1000 ng/mL [5]: 0.082
fraction unbound at 1000 ng/mL [6]: 0.07
fraction unbound at 1000 ng/mL [7]: 0.061
inhibition (INH) [8]: Not Active
solubility [9]: > 25 mg/mL
half-life [10]: 7.8 min
logD [11]: 2.07
CL/F [12]: 153 mL/min/kg
AUC(0-inf) [13]: 2.52 µM·h
Vd [14]: 1.66 L/kg
Cmax [15]: 139 nM
Tmax [16]: 14.4 min
half-life [17]: 121 min
AUC(0-inf) [18]: 0.181 µM·h
Vd [19]: 4.24 L/kg
AUC(0-inf) [20]: 3.22 µM·h
inhibition in vivo at 100 mg/kg (A2780): 63%
Activity (Mus musculus [21]): Non-toxic
Activity (Mus musculus [22]): 3.7%
inhibition in vivo at 25 mg/kg (MV4-11): 61%
Activity (Mus musculus [23]): 12%
Activity (Mus musculus [24]): Non-toxic
Activity (Mus musculus [25]): Non-toxic
